Series [1] concerns the target T1, GR (Homo sapiens, UniProt P04150).
T1 construct: expressed in transfected cells; host or cells: CHO-K1
T1 sequence (P04150 1-777): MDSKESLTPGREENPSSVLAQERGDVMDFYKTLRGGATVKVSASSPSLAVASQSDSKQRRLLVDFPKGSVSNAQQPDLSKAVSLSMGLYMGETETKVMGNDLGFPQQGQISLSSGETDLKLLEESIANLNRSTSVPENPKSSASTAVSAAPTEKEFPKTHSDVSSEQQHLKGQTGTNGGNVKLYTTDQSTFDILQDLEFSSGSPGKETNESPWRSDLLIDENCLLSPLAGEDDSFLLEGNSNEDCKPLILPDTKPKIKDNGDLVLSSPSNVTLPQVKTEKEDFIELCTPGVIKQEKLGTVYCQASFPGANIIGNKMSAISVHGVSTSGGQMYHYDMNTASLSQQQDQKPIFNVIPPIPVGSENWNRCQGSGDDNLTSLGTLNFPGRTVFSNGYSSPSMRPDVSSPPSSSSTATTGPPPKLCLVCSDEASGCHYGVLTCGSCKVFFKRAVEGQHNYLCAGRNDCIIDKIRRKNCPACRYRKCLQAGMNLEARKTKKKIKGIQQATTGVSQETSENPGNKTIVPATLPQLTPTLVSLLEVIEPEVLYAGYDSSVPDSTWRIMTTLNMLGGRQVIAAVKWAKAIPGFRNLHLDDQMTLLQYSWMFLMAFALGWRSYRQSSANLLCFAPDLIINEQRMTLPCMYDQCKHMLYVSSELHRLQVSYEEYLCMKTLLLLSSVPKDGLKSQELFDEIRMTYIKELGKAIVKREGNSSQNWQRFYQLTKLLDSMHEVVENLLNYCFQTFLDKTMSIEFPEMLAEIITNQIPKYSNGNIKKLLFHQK
The series can be described thus: In Vitro GR Luciferase Reporter Assay (antagonist mode, CHO-K1-GR-MMTV-Luc reporter cells). It counts as cell-based. The settings on record: antagonist mode, 10 nM Dexamethasone. The essentials: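 Antagonist mode: compounds (8 serial 1:5 dilutions) added to GR-MMTV-luciferase CHO-K1 reporter cells co-exposed to 10 nM dexamethasone final, in phenol red-free DMEM plus 10% CSS. After roughly 18-24 h at 37° C, OneGlo luminescence read and IC50 calculated.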

Series [2] addresses T2, CYP2C8 (Homo sapiens, UniProt P10632).
T2 construct: Pooled human microsomes were obtained from Sekisui XenoTech, KS; tissue Sekisui XenoTech, KS; host or cells: pooled human liver microsomes
T2 sequence (P10632 1-490): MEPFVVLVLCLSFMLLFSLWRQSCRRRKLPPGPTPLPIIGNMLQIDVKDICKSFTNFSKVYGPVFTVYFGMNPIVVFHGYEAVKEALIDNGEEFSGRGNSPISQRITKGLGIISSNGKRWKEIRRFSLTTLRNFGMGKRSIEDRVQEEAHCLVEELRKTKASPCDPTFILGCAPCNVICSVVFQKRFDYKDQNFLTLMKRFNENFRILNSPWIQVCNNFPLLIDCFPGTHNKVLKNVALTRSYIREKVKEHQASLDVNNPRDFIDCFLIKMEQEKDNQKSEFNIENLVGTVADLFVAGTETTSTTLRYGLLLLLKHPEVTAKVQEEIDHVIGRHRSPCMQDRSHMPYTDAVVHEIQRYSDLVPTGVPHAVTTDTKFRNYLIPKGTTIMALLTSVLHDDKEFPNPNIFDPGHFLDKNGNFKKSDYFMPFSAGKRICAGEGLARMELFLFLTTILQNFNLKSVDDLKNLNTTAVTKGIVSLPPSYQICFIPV
The series can be described thus: CYP Inhibition Assay (CYP2C8, human liver microsomes, paclitaxel substrate). Type of series: in vitro ADME. The note with it: pH 7.4; pooled human liver microsomes 0.1 mg/mL, probe substrate paclitaxel. The essentials: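 CYP2C8 activity read as 6α-hydroxypaclitaxel formation by LC-MS/MS, with % inhibition versus vehicle control. Reactions ran 5 min at 37° C, pH 7.4 phosphate buffer, 0.1 mg/mL pooled human liver microsomes, 1 mM NADPH, duplicate wells.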

`O=C(c1cc(C(F)(F)F)ccn1)[C@]12Cc3cnn(-c4ccc(F)cc4)c3C=C1CC[C@H](N(C1CC1)S(=O)(=O)c1ccc(Cl)cn1)C2` [Example 287, 5-chloro-N-cyclopropyl-N-((4aS,6S)-1-(4-fluorophenyl)-4a-(4-(trifluoromethyl)picolinoyl)-4,4a,5,6,7,8-hexahydro-1H-benzo[f]indazol-6-yl)pyridine-2-sulfonamide]: in series [1], the IC50 was not above 0.1 µM. In series [2], this molecule displayed an inhibition at 5 min of 25 to 50%.

The molecule `Cn1ccc(S(=O)(=O)N([C@H]2CCC3=Cc4c(cnn4-c4ccc(F)cc4)C[C@]3(C(=O)c3cc(Cl)ccn3)C2)[C@H]2C[C@@](C)(O)C2)n1` [Example 288, N-((4aS,6S)-4a-(4-chloropicolinoyl)-1-(4-fluorophenyl)-4,4a,5,6,7,8-hexahydro-1H-benzo[f]indazol-6-yl)-N-((1s,3R)-3-hydroxy-3-methylcyclobutyl)-1-methyl-1H-pyrazole-3-sulfonamide] registered a half-maximal inhibitory concentration (IC50) in series [1] not above 0.1 µM. In series [2], this molecule gave an inhibition at 5 min not above 25%.

In turn, `Cn1ccc(S(=O)(=O)[C@@]2(F)CCC3=Cc4c(cnn4-c4ccc(F)cc4)C[C@]3(C(=O)c3ccc(C(F)(F)F)cn3)C2)n1` [Example 289, ((4aS,6S)-6-fluoro-1-(4-fluorophenyl)-6-((1-methyl-1H-pyrazol-3-yl)sulfonyl)-1,4,5,6,7,8-hexahydro-4aH-benzo[f]indazol-4a-yl)(5-(trifluoromethyl)pyridin-2-yl)methanone] gave a 50% inhibitory concentration (IC50) in series [1] not above 0.1 µM. Moreover, in series [2], the inhibition at 5 min was not above 25%.

The molecule `Cn1cc(S(=O)(=O)N(CC(F)(F)F)[C@H]2CCC3=Cc4c(cnn4-c4ccc(F)cc4)C[C@]3(C(=O)c3ncc(C(F)(F)F)s3)C2)nn1` [Example 290, N-((4aS,6S)-1-(4-fluorophenyl)-4a-(5-(trifluoromethyl)thiazole-2-carbonyl)-4,4a,5,6,7,8-hexahydro-1H-benzo[f]indazol-6-yl)-1-methyl-N-(2,2,2-trifluoroethyl)-1H-1,2,3-triazole-4-sulfonamide] had a 50% inhibitory concentration (IC50) in series [1] not above 0.1 µM. For the same molecule, the inhibition at 5 min in series [2] lay in the range of 25 to 50%.

On to `Cn1cnc(S(=O)(=O)N(CC(F)(F)F)[C@H]2CCC3=Cc4c(cnn4-c4ccc(F)cc4)C[C@]3(C(=O)c3ncc(C(F)(F)F)s3)C2)c1` [Example 293, N-((4aS,6S)-1-(4-fluorophenyl)-4a-(5-(trifluoromethyl)thiazole-2-carbonyl)-4,4a,5,6,7,8-hexahydro-1H-benzo[f]indazol-6-yl)-1-methyl-N-(2,2,2-trifluoroethyl)-1H-imidazole-4-sulfonamide], for which the IC50 in series [1] was not above 0.1 µM. Moreover, the inhibition at 5 min in series [2] is not above 25%.

For the molecule `O=C(c1cc(C(F)(F)F)ccn1)[C@]12Cc3cnn(-c4ccc(F)cc4)c3C=C1CC[C@H](N(CC1CC1)S(=O)(=O)c1ccc(Cl)nc1)C2` [Example 294, 6-chloro-N-(cyclopropylmethyl)-N-((4aS,6S)-1-(4-fluorophenyl)-4a-(4-(trifluoromethyl)picolinoyl)-4,4a,5,6,7,8-hexahydro-1H-benzo[f]indazol-6-yl)pyridine-3-sulfonamide], in series [1], the IC50 was not above 0.1 µM. The same molecule registered an inhibition at 5 min in series [2] not above 25%.

In turn, `CC(C)N([C@H]1CCC2=Cc3c(cnn3-c3ccc(F)cc3)C[C@]2(C(=O)c2cc(F)ccn2)C1)S(=O)(=O)c1cn(C)nn1` [Example 295, N-((4aS,6S)-1-(4-fluorophenyl)-4a-(4-fluoropicolinoyl)-4,4a,5,6,7,8-hexahydro-1H-benzo[f]indazol-6-yl)-N-isopropyl-1-methyl-1H-1,2,3-triazole-4-sulfonamide] returned a half-maximal inhibitory concentration (IC50) in series [1] not above 0.1 µM. In series [2], this molecule came in with an inhibition at 5 min of 50 to 75%.

Consider `CC(C)N([C@H]1CCC2=Cc3c(cnn3-c3ccc(F)cc3)C[C@]2(C(=O)c2cc(Cl)ccn2)C1)S(=O)(=O)c1cn(C)nn1` [Example 296, N-((4aS,6S)-4a-(4-chloropicolinoyl)-1-(4-fluorophenyl)-4,4a,5,6,7,8-hexahydro-1H-benzo[f]indazol-6-yl)-N-isopropyl-1-methyl-1H-1,2,3-triazole-4-sulfonamide], for which the concentration for half-maximal inhibition (IC50) in series [1] is not above 0.1 µM. This molecule gave an inhibition at 5 min in series [2] of 50 to 75%.

In series [1], `Cn1ccc(S(=O)(=O)N(CC2CC2)[C@H]2CCC3=Cc4c(cnn4-c4ccc(F)cc4)C[C@]3(C(=O)c3cc(C(F)F)ccn3)C2)n1` [Example 298, N-(cyclopropylmethyl)-N-((4aS,6S)-4a-(4-(difluoromethyl)picolinoyl)-1-(4-fluorophenyl)-4,4a,5,6,7,8-hexahydro-1H-benzo[f]indazol-6-yl)-1-methyl-1H-pyrazole-3-sulfonamide] showed an IC50 not above 0.1 µM. Moreover, in series [2], the inhibition at 5 min was in the range of 50 to 75%.

For `CC(C)N([C@H]1CCC2=Cc3c(cnn3-c3ccc(F)cc3)C[C@]2(C(=O)c2ncc(C(F)(F)F)s2)C1)S(=O)(=O)c1cn(C)cn1` [Example 299, N-((4aS,6S)-1-(4-fluorophenyl)-4a-(5-(trifluoromethyl)thiazole-2-carbonyl)-4,4a,5,6,7,8-hexahydro-1H-benzo[f]indazol-6-yl)-N-isopropyl-1-methyl-1H-imidazole-4-sulfonamide], the IC50 in series [1] was not above 0.1 µM. In series [2], this molecule displayed an inhibition at 5 min not above 25%.

`Cn1ncc(S(=O)(=O)N(CC(F)(F)F)[C@H]2CCC3=Cc4c(cnn4-c4ccc(F)cc4)C[C@]3(C(=O)c3ncc(C(F)(F)F)s3)C2)n1` [Example 300, N-((4aS,6S)-1-(4-fluorophenyl)-4a-(5-(trifluoromethyl)thiazole-2-carbonyl)-4,4a,5,6,7,8-hexahydro-1H-benzo[f]indazol-6-yl)-2-methyl-N-(2,2,2-trifluoroethyl)-2H-1,2,3-triazole-4-sulfonamide] returned an IC50 in series [1] not above 0.1 µM. In series [2], this molecule showed an inhibition at 5 min of 50 to 75%.

In series [1], `Cc1ncc(S(=O)(=O)N(C2CC2)[C@H]2CCC3=Cc4c(cnn4-c4ccc(F)cc4)C[C@]3(C(=O)c3cc(C(F)(F)F)ccn3)C2)n1C` [Example 307, N-cyclopropyl-N-((4aS,6S)-1-(4-fluorophenyl)-4a-(4-(trifluoromethyl)picolinoyl)-4,4a,5,6,7,8-hexahydro-1H-benzo[f]indazol-6-yl)-1,2-dimethyl-1H-imidazole-5-sulfonamide] came in with an IC50 not above 0.1 µM. For the same molecule, the inhibition at 5 min in series [2] lay in the range of 25 to 50%.

For `CCn1ccc(S(=O)(=O)[C@H]2CCC3=Cc4c(cnn4-c4ccc(F)cc4)C[C@]3(C(=O)c3ccc(C(F)(F)F)cn3)C2)n1` [Example 308, ((4aS,6S)-6-((1-ethyl-1H-pyrazol-3-yl)sulfonyl)-1-(4-fluorophenyl)-1,4,5,6,7,8-hexahydro-4aH-benzo[f]indazol-4a-yl)(5-(trifluoromethyl)pyridin-2-yl)methanone], in series [1], the half-maximal inhibitory concentration (IC50) was not above 0.1 µM. Besides, the inhibition at 5 min in series [2] fell in the range of 25 to 50%.

In series [1], `O=C(c1ccc(C(F)(F)F)cn1)[C@]12Cc3cnn(-c4ccc(F)cc4)c3C=C1CC[C@H](S(=O)(=O)c1ccn(C3CC3)n1)C2` [Example 309, ((4aS,6S)-6-((1-cyclopropyl-1H-pyrazol-3-yl)sulfonyl)-1-(4-fluorophenyl)-1,4,5,6,7,8-hexahydro-4aH-benzo[f]indazol-4a-yl)(5-(trifluoromethyl)pyridin-2-yl)methanone] yielded an IC50 not above 0.1 µM. Further, the inhibition at 5 min in series [2] is not above 25%.

With `CC(C)n1ccc(S(=O)(=O)[C@H]2CCC3=Cc4c(cnn4-c4ccc(F)cc4)C[C@]3(C(=O)c3ccc(C(F)(F)F)cn3)C2)n1` [Example 310, ((4aS,6S)-1-(4-fluorophenyl)-6-((1-isopropyl-1H-pyrazol-3-yl)sulfonyl)-1,4,5,6,7,8-hexahydro-4aH-benzo[f]indazol-4a-yl)(5-(trifluoromethyl)pyridin-2-yl)methanone], the half-maximal inhibitory concentration (IC50) in series [1] was not above 0.1 µM. This molecule had an inhibition at 5 min in series [2] of 25 to 50%.

(Values after patent US20210122730A1, “GLUCOCORTICOID RECEPTOR MODULATORS” (ORIC Pharmaceuticals, Inc., priority 2017, published 2021).)
